{
  "source": "patent US11357778B2",
  "about": "“Antagonist of the fibroblast growth factor receptor 3 (FGFR3) for use in the treatment or the prevention of skeletal disorders linked with abnormal activation of FGFR3” (INSTITUT NATIONAL DE LA SANTE ET DE LE RECHERCHE MEDICALE …, priority 2011, dated 2022)",
  "key": {"Fgfr3^Y367C/+ femurs": {"system": "Fgfr3^Y367C/+ femurs", "assay": "Ex vivo culture of E16.5 embryonic femur explants, bone length", "type": "cell-based, mouse", "procedure": "(§1) Six sets of ex vivo experiments were performed. Femur embryos at day E16.5 from WT (n=6) and Fgfr3^Y367C/+ (n=6) mice were used and incubated for 5 days in DMEM medium with antibiotics and 0.2% BSA (Sigma) supplemented with A31 or PD173074 (as control) at a concentration of 2 mM. Right femur was cultured in supplemented medium and compared with the left one cultured in control medium. Rib cage from E16.5 WT and Fgfr3^Y367C/+ mice embryos were isolated and stripped of all soft tissues. Primary chondrocytes were obtained from rib cages. The ribs were incubated in a pronase solution (Roche; 2 mg/ml) followed by a digestion in Collagenase A (Roche; 3 mg/ml) at 37° C. Isolated chondrocytes were plated out at a density of 2.105 cells in 6-well plates containing DMEM supplemented with 10% FCS and antibiotics, and were allowed to reach subconfluency. Cultures were supplemented with A31 or PD173074 (as control) at a concentration of 2 mM. Cells were treated with A31 (2 mM) PD173074 (as control) in serum-free DMEM supplemented with 0.2% BSA and harvested after 24 h. To establish the effect of the inhibitors, the right femur was cultured in supplemented medium and compared with the left one cultured in control medium The bone length was measured at the beginning (before treatment) and at the end of time course. Each experiment was repeated at least three times. The genotype of WT, Fgfr3^Y367C/+ and Fgfr3^−/− mice were determined by PCR of tail DNA as previously described (Pannier et al., Biochim Biophys Acta, 1792: 140-147, 2009). All experimental procedures and protocols were approved by the Animal Care and Use Committee.\nFgfr3^Y367C/+ mice display reduced length of long bones, broad femurs, a narrow trunk, short ribs and a slightly dome-shaped skull, closely resembling achondroplasia (FIGS. 3A and B). The inventors analyzed the effects of A31 on endochondral ossification in Fgfr3^Y367C/+ mice by using an ex vivo culture system for embryonic day 16.5 (E16.5) limb explants. […] After 5 days of culture, the increase in length of the treated mutant femurs was 2.6 times more than for that of WT.\nThus, embryonic femur explants were co-incubated with 150 nM of PD173074 for 5 days.\nEmbryonic femur explants were co-incubated 100 nM (10^−7M) or 1 μM (10^−6M) of BGJ-398 for 6 days."}, "cyclin D1": {"system": "cyclin D1", "assay": "Cyclin D1 immunoblot in costal primary chondrocytes from E16.5 ribs", "type": "cell-based, mouse", "conditions": "A31-treated murine chondrocytes vs untreated", "procedure": "as §1, with “Isolated chondrocytes were plated out at a density of 2.105 cells in 6-well plates containing DMEM supplemented with 10% FCS and antibiotics, and were allowed to reach subconfluency. Cultures were supplemented with A31 or PD173074 (as control) at a concentration of 2 mM. Cells were treated with A31 (2 mM) PD173074 (as control) in serum-free DMEM supplemented with 0.2% BSA and harvested after 24 h.” left out, “Each experiment was repeated at least three times.” left out, “All experimental procedures and protocols were approved by the Animal Care and Use Committee.” left out\n(§2) Immunoprecipitation were performed by incubating […] rabbit anti-FGFR3 (Sigma)/[…] protein with protein A-agarose (Roche). […] Bound proteins were detected by chemiluminescence (ECL, Amersham). The blots were rehybrididized with an antipan-actin antibody for quantification (Millipore). […]"}, "[1]": {"system": "Fgfr3^Y367C/+ growth plate", "assay": "Histology of cultured femur growth plate (HES staining, type X collagen in situ hybridization)", "type": "cell-based, mouse", "procedure": "Limb explants were fixed after culture in 4% paraformaldehyde at 4° C., and placed in a staining solution for 45-60 minutes (0.05% Alizarin Red, 0.015% Alcian Blue, 5% acetic acid in 70% ethanol) or embedded in paraffin. Serial […] were stained with Hematoxylin-Eosin using standard protocols for histological analysis or were subjected to in situ hybridization or immunohistochemical staining. In situ hybridization using [S35]-UTP labeled antisense ribopropes for collagen X was carried out as previously described (Delezoide et al., Hum Mol Genet, 6, 1899-1906, 1997). Sections were counterstained with Hematoxylin. For immunohistochemistry, sections were stained with antibodies specific to FGFR3 (1:250 dilution; Sigma), anti PCNA (1:1000 dilution; Abcam), anti-KI67 (1:300; Abcam), anti-cyclin D1 (1:80 dilution; Santa Cruz) and anti-p57 (1:100 dilution; Santa Cruz) using the Dako Envision kit. Images were captured with an Olympus PD70-IX2-UCB microscope. […] The inventors evaluated the impact of A31 on the growth plate (FIG. 4A). […] Histological examinations using HES staining (FIG. 10A) and type X collagen labeling (FIG. 10B) were also carried out."}, "FGFR3 [2]": {"molecular_target": "FGFR3 (Homo sapiens, UniProt P22607)", "sequence (P22607 23-806)": "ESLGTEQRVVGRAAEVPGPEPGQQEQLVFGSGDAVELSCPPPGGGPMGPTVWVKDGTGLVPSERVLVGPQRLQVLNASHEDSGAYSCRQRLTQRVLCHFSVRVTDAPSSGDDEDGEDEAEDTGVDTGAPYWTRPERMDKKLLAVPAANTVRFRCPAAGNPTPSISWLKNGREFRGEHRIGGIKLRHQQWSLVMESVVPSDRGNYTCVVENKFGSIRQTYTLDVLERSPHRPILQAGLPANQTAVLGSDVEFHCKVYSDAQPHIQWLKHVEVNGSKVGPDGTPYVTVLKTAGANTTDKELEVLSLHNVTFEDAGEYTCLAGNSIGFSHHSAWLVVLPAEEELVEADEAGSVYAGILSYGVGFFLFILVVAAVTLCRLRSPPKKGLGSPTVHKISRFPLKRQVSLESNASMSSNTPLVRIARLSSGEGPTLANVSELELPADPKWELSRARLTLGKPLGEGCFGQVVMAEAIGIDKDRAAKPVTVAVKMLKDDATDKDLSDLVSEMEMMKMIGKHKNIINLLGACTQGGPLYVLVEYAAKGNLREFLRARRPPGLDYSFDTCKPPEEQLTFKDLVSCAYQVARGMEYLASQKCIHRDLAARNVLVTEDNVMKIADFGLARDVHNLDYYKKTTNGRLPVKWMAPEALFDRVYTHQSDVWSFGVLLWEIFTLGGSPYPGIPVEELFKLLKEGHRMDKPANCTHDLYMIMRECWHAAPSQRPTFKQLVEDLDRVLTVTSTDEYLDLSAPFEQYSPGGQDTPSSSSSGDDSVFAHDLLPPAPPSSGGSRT", "conditions": "read-out: IC50 for inhibition of autophosphorylation of FGFR3; cited from earlier work"}, "WT femurs": {"system": "WT femurs", "assay": "Ex vivo culture of E16.5 embryonic femur explants, bone length, wild type", "type": "cell-based, mouse", "conditions": "A31 2 mM, 5 days of culture", "procedure": "as §1, with “Cells were treated with A31 (2 mM) PD173074 (as control) in serum-free DMEM supplemented with 0.2% BSA and harvested after 24 h.” left out, “Each experiment was repeated at least three times.” left out, “All experimental procedures and protocols were approved by the Animal Care and Use Committee.” left out"}, "Fgfr3 [3]": {"system": "Fgfr3", "assay": "Fgfr3 protein expression (immunohistochemistry of femurs, Western blot of costal primary chondrocytes)", "type": "cell-based, mouse", "conditions": "A31; data not shown", "procedure": "as §1, with “Isolated chondrocytes were plated out at a density of 2.105 cells in 6-well plates containing DMEM supplemented with 10% FCS and antibiotics, and were allowed to reach subconfluency. Cultures were supplemented with A31 or PD173074 (as control) at a concentration of 2 mM. Cells were treated with A31 (2 mM) PD173074 (as control) in serum-free DMEM supplemented with 0.2% BSA and harvested after 24 h.” left out, “Each experiment was repeated at least three times.” left out, “All experimental procedures and protocols were approved by the Animal Care and Use Committee.” left out\nas §2"}},
  "data": [
    {"smiles": "COc1cc(OC)cc(-c2cc3cnc(NCc4cn(CC5CCCN(C)C5)nn4)nc3nc2NC(=O)NC(C)(C)C)c1", "note": "(stereo not shown) [Compound A31]", "values": [
      {"measurement": "limb growth in Fgfr3^Y367C/+ femurs (in words)", "setting": "Fgfr3^Y367C/+ femurs; A31 2 mM, 5 days", "result": "fully restore limb growth"},
      {"measurement": "longitudinal bone growth (gain in femur length)", "setting": "Fgfr3^Y367C/+ femurs; A31 2 mM, 5 days of culture, Fgfr3^Y367C/+ femurs", "result": "1880±558", "unit": "μm"},
      {"measurement": "increase in length of treated mutant femurs relative to WT", "setting": "Fgfr3^Y367C/+ femurs; A31, after 5 days of culture", "result": 2.6, "unit": "times"},
      {"measurement": "cyclin D1 level (Western blot)", "setting": "cyclin D1", "result": "reduced level of cyclin D1"},
      {"measurement": "size of the hypertrophic zone of the growth plate", "setting": "[1]; A31, Fgfr3^Y367C/+ femur explants", "result": "marked expansion of the hypertrophic zone"},
      {"measurement": "type X collagen expression (in situ hybridization)", "setting": "[1]; A31, Fgfr3^Y367C/+ growth plates", "result": "enhanced type X collagen expression"},
      {"measurement": "chondrocyte morphology", "setting": "[1]; A31, data not shown", "result": "enlarged and more spherical"},
      {"measurement": "IC50", "setting": "FGFR3 [2]", "result": "~190", "unit": "nM"},
      {"measurement": "longitudinal bone growth (gain in femur length)", "setting": "WT femurs", "result": "1863±255", "unit": "μm"},
      {"measurement": "Fgfr3 expression in mutant femurs (immunohistochemical staining)", "setting": "Fgfr3 [3]", "result": "large decrease of Fgfr3 expression"}
    ]}
  ]
}
